Like-named read-outs stand apart in the source and are kept apart here.
How the values were obtained:
SW480 cells = experiment: Growth inhibition assay (MTS); assay type: cell-based; details: Homo sapiens, Table 5, SW480 cells, 48 hours treatment, MTS, read-out: Growth Inhibition (GI50, uM) SW480
Procedure, shortened: (§1)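 Cells seeded at 10^4 per well, grown 24 h at 37° C, then exposed to compound at various concentrations for 48 hours. MTS added for 2 h; absorbance at 490 nm gave viability, with cytotoxicity calculated per concentration against pre-treatment reading.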

HCT116 cells = experiment: Growth inhibition assay (MTS); assay type: cell-based; details: Homo sapiens, Table 5, HCT116 cells, 48 hours treatment, MTS, read-out: Growth Inhibition (GI50, uM) HCT116
Procedure, shortened: as §1

Row | Compound | GI50 (SW480 cells) [µM] | GI50 (HCT116 cells; HCT-116) [µM] | GI50 (SW480 cells; SW480, 48 h) [µM] | GI50 (HCT116 cells; HCT-116, 48 h) [µM]
1 | C=CCN1CC(=O)N2[C@@H](Cc3ccc(OP(=O)(O)O)cc3)C(=O)N(Cc3cc(F)c(F)cc3N(C)C)C[C@@H]2N1C(=O)NCc1ccccc1 [Compound 133] | 2.3 ± 0.1 | 2.1 ± 1.8 | – | –
2 | CCCN1CC(=O)N2[C@@H](Cc3ccc(O)cc3)C(=O)N(Cc3ccc(Cl)c4cccnc34)C[C@@H]2N1C(=O)NCc1ccccc1 [Compound 120] | – | – | 1.8 ± 0.2 | 2.6 ± 0.1
3 | C=CCN1CC(=O)N2[C@@H](Cc3ccc(NC=O)cc3)C(=O)N(Cc3ccc(F)cc3F)C[C@@H]2N1C(=O)NCc1ccccc1 [Compound 129] | – | – | 2.9 ± 0.5 | 3.1 ± 0.3
4 | C=CCN1CC(=O)N2[C@@H](Cc3ccc(O)cc3)C(=O)N([C@H](C)c3ccccc3)C[C@@H]2N1C(=O)NCc1ccccc1 [Compound 153] | – | – | 12.8 ± 1.6 | 14.3 ± 7
5 | C=CCN1CC(=O)N2[C@@H](Cc3ccc(O)cc3)C(=O)N(Cc3ccc(Cl)c4cccnc34)C[C@@H]2N1C(=O)NCc1ccccc1 [Compound 109] | – | – | 1.3 ± 0.3 | 1.1 ± 0.1
6 | C=CCN1CC(=O)N2[C@@H](Cc3ccc(OP(=O)(O)O)cc3)C(=O)N(Cc3ccccc3)C[C@@H]2N1C(=O)NCc1ccccc1 [Compound 144] | 0.5 ± 0.03 | 0.6 ± 0.1 | – | –
7 | C=CCN1CC(=O)N2[C@@H](Cc3ccc(O)cc3)C(=O)N(Cc3ccccc3)C[C@@H]2N1C(=O)NCc1ccc(Cl)c(Cl)c1 [Compound 177] | – | – | 1.8 ± 0.1 | 1.6 ± 0.1
8 | C#CCN1CC(=O)N2[C@@H](Cc3ccc(O)cc3)C(=O)N(Cc3cccc4cccnc34)C[C@@H]2N1C(=O)NCc1ccccc1 [Compound 87] | – | – | 0.6 ± 0.2 | 0.5 ± 0.1
9 | C=CCN1CC(=O)N2[C@@H](Cc3ccc(OP(=O)(O)O)cc3)C(=O)N(Cc3ccc(Cl)c(N(C)C)c3)C[C@@H]2N1C(=O)NCc1ccccc1 [Compound 131] | 2.3 ± 0.1 | 1.7 ± 0.5 | – | –
10 | C#CCN1CC(=O)N2[C@@H](Cc3ccc(O)cc3)C(=O)N(Cc3ccc(Cl)c4cccnc34)C[C@@H]2N1C(=O)NCc1ccccc1 [Compound 110] | – | – | 2.1 ± 0.3 | 1.9 ± 0.1
11 | C=CCN1CC(=O)N2[C@@H](Cc3ccc(O)cc3)C(=O)N(Cc3cccc(OC)c3OC)C[C@@H]2N1C(=O)NCc1ccccc1 [Compound 184] | – | – | 0.7 ± 0.4 | 0.7 ± 0.1
12 | CN1CC(=O)N2[C@@H](Cc3ccc(O)cc3)C(=O)N(Cc3ccc4cnn(Cc5ccccc5N)c4c3)C[C@@H]2N1C(=O)NCc1ccccc1 [Compound 61] | – | – | 11.3 ± 6 | 3.6 ± 0.3
13 | CN1CC(=O)N2[C@@H](Cc3ccc(O)cc3)C(=O)N(Cc3cccc(N4CCCC4)c3)C[C@@H]2N1C(=O)NCc1ccccc1 [Compound 40] | – | – | 6.4 ± 0.5 | 5.8 ± 0.4
14 | CN1CC(=O)N2C(CN(Cc3ccc(Cl)cc3Cl)C(=O)[C@@H]2Cc2ccc(O)cc2)N1C(=O)NCc1ccccc1 (some centres unmarked) [Compound 18] | – | – | 4.63 | 3.52
15 | CCN(C)c1cccc(CN2C[C@H]3N(C(=O)CN(C)N3C(=O)NCc3ccccc3)[C@@H](Cc3ccc(O)cc3)C2=O)c1 [Compound 25] | – | – | 24.5 | 1.81
16 | CN(C)Cc1cccc(CN2C[C@H]3N(C(=O)CN(C)N3C(=O)NCc3ccccc3)[C@@H](Cc3ccc(O)cc3)C2=O)c1 [Compound 89] | – | – | 14.6 ± 1.4 | 7.5 ± 1
17 | C=CCN1CC(=O)N2[C@@H](Cc3ccc(O)cc3)C(=O)N(Cc3ccc(Cl)c(N4CCOCC4)c3)C[C@@H]2N1C(=O)NCc1ccccc1 [Compound 111] | – | – | 2.7 ± 0.8 | 2.1 ± 0.2
18 | C=CCN1CC(=O)N2[C@@H](Cc3ccc(O)cc3)C(=O)N(Cc3cccc(N(C)C)c3)C[C@@H]2N1C(=O)NCc1ccccc1 [Compound 162] | – | – | 1 ± 0.3 | 1.3 ± 0.7
19 | C=CCN1CC(=O)N2[C@@H](Cc3ccc(O)cc3)C(=O)N(Cc3cccc4c3OCC4)C[C@@H]2N1C(=O)NCc1ccccc1 [Compound 175] | – | – | 3 ± 0.4 | 2.5 ± 0.1
20 | CN1CC(=O)N2[C@@H](Cc3ccc(O)cc3)C(=O)N(Cc3cccc4c3cnn4C)C[C@@H]2N1C(=O)NCc1ccccc1 [Compound 35] | – | – | 4.7 ± 0.5 | 5 ± 0.7
21 | CN1CC(=O)N2C(CN(Cc3ccccc3Cl)C(=O)[C@@H]2Cc2ccc(O)cc2)N1C(=O)NCc1ccccc1 (some centres unmarked) [Compound 15] | – | – | 1.68 | 1.34
22 | C[C@@H](c1ccc(Cl)c2cccnc12)N1CC2N(C(=O)CN(C)N2C(=O)NCc2ccccc2)[C@@H](Cc2ccc(O)cc2)C1=O (some centres unmarked) [Compound 166] | – | – | 27.9 ± 4.7 | 25.2 ± 3.2
23 | C=CCN1CC(=O)N2[C@@H](Cc3ccc(O)cc3)C(=O)N(Cc3cccc(N(C)C(=O)CCCCC)c3)C[C@@H]2N1C(=O)NCc1ccccc1 [Compound 164] | – | – | 3 ± 0.3 | 2.9 ± 0.4
24 | CN1CC(=O)N2[C@@H](Cc3ccc(O)cc3)C(=O)N(Cc3ccccc3N3CCOCC3)C[C@@H]2N1C(=O)NCc1ccccc1 [Compound 72] | – | – | 10.9 ± 0.6 | 10.3 ± 1.6
25 | C=CCN1CC(=O)N2[C@@H](Cc3ccc(OP(=O)(O)O)cc3)C(=O)N(Cc3cccc4c3OCCN4C)C[C@@H]2N1C(=O)NCc1ccccc1 [Compound 139] | 1.2 ± 0.1 | 1 ± 0.2 | – | –

Row | Compound | GI50 (SW480 cells) [µM] | GI50 (HCT116 cells; HCT-116) [µM] | GI50 (SW480 cells; SW480, 48 h) [µM] | GI50 (HCT116 cells; HCT-116, 48 h) [µM]
26 | CN1CC(=O)N2[C@@H](Cc3ccc(O)cc3)C(=O)N(Cc3cccc4nn(CCN5CCOCC5)cc34)C[C@@H]2N1C(=O)NCc1ccccc1 [Compound 75] | – | – | 2 ± 0.1 | 4.5 ± 0.4
27 | CN1CC(=O)N2[C@@H](Cc3ccc(O)cc3)C(=O)N(Cc3ccc4ncsc4c3)C[C@@H]2N1C(=O)NCc1ccccc1 [Compound 54] | – | – | 7.1 ± 0.5 | 4.9 ± 0.7
28 | C=CCN1CC(=O)N2[C@@H](Cc3ccc(O)cc3)C(=O)N(Cc3cccc4sc(-c5ccc(O)cc5)nc34)C[C@@H]2N1C(=O)NCc1ccccc1 [Compound 192] | – | – | 1.1 ± 0.1 | 1.3 ± 0.1
29 | COc1cccc(CN2CC3N(C(=O)CN(C)N3C(=O)NCc3ccccc3)[C@@H](Cc3ccc(O)cc3)C2=O)c1OC (some centres unmarked) [Compound 21] | – | – | 5.25 | 1.67
30 | C=CCN1CC(=O)N2[C@@H](Cc3ccc(O)cc3)C(=O)N(Cc3ccc(OC)cc3OC)C[C@@H]2N1C(=O)NCc1ccccc1 [Compound 183] | – | – | 1.6 ± 0.3 | 1.5 ± 0.1
31 | C#CCNC(=O)c1ccccc1Cn1ncc2c(CN3C[C@H]4N(C(=O)CN(C)N4C(=O)NCc4ccccc4)[C@@H](Cc4ccc(O)cc4)C3=O)cccc21 [Compound 80] | – | – | 4 ± 0.6 | 3.9 ± 0.6
32 | C=CCN1CC(=O)N2[C@@H](Cc3ccc(O)cc3)C(=O)N(Cc3ccc(Cl)c(Cl)c3)C[C@@H]2N1C(=O)NCc1ccccc1 [Compound 150] | – | – | 1.3 ± 0.1 | 1.4 ± 0.2
33 | CN1CC(=O)N2[C@@H](Cc3ccc(O)cc3)C(=O)N(Cc3ccccc3C(F)(F)F)C[C@@H]2N1C(=O)NCc1ccccc1 [Compound 10] | 2.34 | 1.66 | – | –
34 | CC(C)N1CC(=O)N2[C@@H](Cc3ccc(O)cc3)C(=O)N(Cc3ccc(F)cc3F)C[C@@H]2N1C(=O)NCc1ccccc1 [Compound 146] | – | – | 3.7 ± 0.5 | 4 ± 0.5
35 | CN1CC(=O)N2[C@@H](Cc3ccc(O)cc3)C(=O)N(Cc3cccc4cnn(Cc5ccc(N)cc5)c34)C[C@@H]2N1C(=O)NCc1ccccc1 [Compound 78] | – | – | 2.2 ± 0.2 | 3.7 ± 0.3
36 | CN1CC(=O)N2[C@@H](Cc3ccc(O)cc3)C(=O)N(Cc3ccc4cn[nH]c4c3)C[C@@H]2N1C(=O)NCc1ccccc1 [Compound 64] | – | – | 12 ± 0.7 | 19 ± 1.6
37 | CN1CC(=O)N2[C@@H](Cc3ccc(NC=O)cc3)C(=O)N(Cc3cccc4ccccc34)C[C@@H]2N1C(=O)NCc1ccccc1 [Compound 44] | – | – | 3.8 ± 0.4 | 4.2 ± 0.5
38 | C=CCN1CC(=O)N2[C@@H](Cc3ccc(O)c(F)c3)C(=O)N(Cc3cccc4scnc34)C[C@@H]2N1C(=O)NCc1ccccc1 [Compound 186] | – | – | 1.7 ± 0.1 | 2 ± 0.2
39 | CN(C)c1cc(Cl)ccc1CN1C[C@H]2N(C(=O)CN(C)N2C(=O)NCc2ccccc2)[C@@H](Cc2ccc(O)cc2)C1=O [Compound 24] | – | – | 13.8 | 1.67
40 | C=CCN1CC(=O)N2[C@@H](Cc3ccc(O)cc3)C(=O)N(Cc3ccc(OC)cc3)C[C@@H]2N1C(=O)NCc1ccc(Cl)c(Cl)c1 [Compound 185] | – | – | 4.9 ± 0.4 | 4.5 ± 0.2
41 | CC(C)N(C)c1ccccc1CN1C[C@H]2N(C(=O)CN(C)N2C(=O)NCc2ccccc2)[C@@H](Cc2ccc(O)cc2)C1=O [Compound 30] | – | – | 14.1 | 5.4
42 | C[C@H]1[C@H]2N(C(=O)CN(C)N2C(=O)NCc2ccccc2)[C@@H](Cc2ccc(O)cc2)C(=O)N1Cc1ccc(Cl)c(N(C)C)c1 [Compound 57] | – | – | 3.1 ± 0.3 | 5.1 ± 0.3
43 | CCN1CC(=O)N2[C@@H](Cc3ccc(O)cc3)C(=O)N(Cc3cccc4cccnc34)C[C@@H]2N1C(=O)NCc1ccccc1 [Compound 93] | – | – | 1.9 ± 0.4 | 1.1 ± 0.1
44 | C=CCN1CC(=O)N2[C@@H](Cc3ccc(O)c(F)c3)C(=O)N(Cc3ccc(F)cc3)C[C@@H]2N1C(=O)NCc1ccccc1 [Compound 156] | – | – | 3.7 ± 0.3 | 3.8 ± 0.2
45 | C#CCn1cc2cccc(CN3C[C@H]4N(C(=O)CN(C)N4C(=O)NCc4ccccc4)[C@@H](Cc4ccc(O)cc4)C3=O)c2n1 [Compound 79] | – | – | 2.8 ± 0.2 | 5.2 ± 0.4
46 | C=CCN1CC(=O)N2[C@@H](Cc3ccc(O)cc3)C(=O)N(Cc3cc(N(C)C(C)C)cc(C(F)(F)F)c3)C[C@@H]2N1C(=O)NCc1ccccc1 [Compound 126] | – | – | 19.4 ± 3 | 11.6 ± 3
47 | COc1ccccc1CN1C[C@H]2N(C(=O)CN(C)N2C(=O)NCc2ccccc2)[C@@H](Cc2ccc(O)cc2)C1=O [Compound 2] | – | – | 2.58 | 2.23
48 | CCCN1CC(=O)N2[C@@H](Cc3ccc(O)cc3)C(=O)N(Cc3ccccc3)C[C@@H]2N1C(=O)NCc1ccccc1 [Compound 138] | – | – | 4 ± 0.4 | 3.9 ± 0.7
49 | CN1CC(=O)N2[C@@H](Cc3ccc(O)cc3)C(=O)N(Cc3cccc(N4CCOCC4)c3)C[C@@H]2N1C(=O)NCc1ccccc1 [Compound 90] | – | – | 12.6 ± 0.9 | 14.7 ± 1

Source: patent US7671054B1, “Reverse-turn mimetics and method relating thereto” (Choongwae Pharma Corporation, priority 2001, dated 2010)
